# From patent publication US20220242846A1, “ISOINDOLINONE COMPOUNDS” (Monte Rosa Therapeutics AG, priority 2019, published 2022)
# How the values were obtained:
# [1] = target: T1, Full length wild-type cereblon CRBN (Homo sapiens, UniProt Q96SW2); assay: Fluorescence polarization (FP) assay indicating cereblon binding; details: CRBN 80.0 nM, fluorescent probe 5 nM, FP measured after 12 hours; read-out: rFP IC50
# T1 construct: Full length wild-type cereblon CRBN (80.0 nM, 10 μL) was incubated in assay buffer
# In short: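 Full-length wild-type human CRBN (80.0 nM) preincubated 30 min at room temperature with compound (12-point curve, 300-0.937 or 3000-9.3 nM) in HEPES pH 8.0, NaCl, TCEP, Tween 20. Thalidomide-based Cy5-type probe then added at 5 nM final; FP read after 12 h (ex 590, em 675 nm), normalized to DMSO, IC50 derived.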
# IKZF3 = target: T2, IKZF3 (Homo sapiens, UniProt Q9UKT9); assay: Selectivity determination by Western Blot assay in MM1S cells: IKZF3; type: cell-based; parameters: key: A represents a no degradation observed at 30 μM; B represents trace degradation at 30 μM (below 20%); C represents weak degradation at 30 μM (below 50%); D represents degradation at 30 μM (>90%); E represents degradation at 3 μM (>90%); F represents degradation at 0.3 μM (>90%); details: MM1S cells, 0.3, 3 and 30 μM, 6 hours
# T2 construct: MM1S cells were purchased from ATCC (cat. Number CRL-2974); endogenous in cells; host or cells: MM1S (ATCC CRL-2974)
# Method: (§1) CK1alpha/Ikaros/Aiolos/ZFP91 Selectivity determination by Western Blot Assay
# (§2) MM1S cells were purchased from ATCC (cat. Number CRL-2974), sub-cultured in 90% RPMI 1640 with 10% FBS, supplemented with 1× P/S and incubated at 37° C., 5% CO2. Compounds were stored as 10 mM DMSO stock. For the assay, MM1S cells (3 million cells/well) were plated in 6-well plates and incubated over night. Cells were treated with respective compounds using a serial dilution: 0.3 μM, 3 μM and 30 μM as well as a vehicle only (DMSO) control for 6 hours. Media with suspension cells was subsequently transferred to 15 mL conical tubes, wells rinsed twice with ice-cold PBS and merged with cell suspension in respective 15 mL conical tube. Cells were spinned down, supernatant aspirated, pellets resuspended in ice-cold PBS and transferred to microtubes. Cells were spinned down, supernatant aspirated and pellets resuspended in 120 μL RIPA lysis buffer supplemented with protease and phosphatase inhibitors. Cell lysates were incubated on ice for 20 minutes followed by centrifugation at >20,000×g for 5 mM. Supernatants were transferred to fresh microtubes and stored at −80° C. Total protein concentration was determined using a BCA assay with a BSA standard curve and concentration of all samples was adjusted to 1 mg/mL. 25 μL 4× LDS sample buffer supplemented with 100 mM DTT was added to 75 μL sample. Samples were centrifuged (8,000×g, 1 min) and incubated at 95° C. for […] followed by another centrifugation step (8,000×g, 1 mM). 20 μL of each sample was loaded on a 4-12% gel alongside a protein molecular weight marker. Gels were run in the presence of MOPS buffer at 80 Volts for […], followed by 120 Volts for 1.5 h and proteins subsequently transferred onto nitrocellulose membranes at 20 Volts for 7 mM using an iBlot2 Gel Transfer Device. Membranes were then cut horizontally into two pieces, covering 80-50 kDa and 50-25 kDa. Blocking the membranes was performed by gently shaking in 5% (w/v) skim milk in TSB-T for 1 hr at room temperature. All primary antibodies were used at a 1/1000 in 5% (w/v) BSA dissolved in TBST and incubated with membranes over night at 4° C. After three washes with 1× TBST for 5 mM, HRP-coupled secondary antibodies diluted in 5% (w/v) BSA/TBST (Goat Anti-Rb IgG, dil. 1/10,000; Goat Anti-Mouse IgG, dil. 1/5000) were added for 1 hr at room temperature. After three washes with 1× TBST (5 minutes each), membranes were incubated with ECL reagent for 1 mM at room temperature. Chemiluminescence signals were then detected using a LAS-4000 system with default settings and signals quantified using Image Studio Lite software (version 5.2). Membrane parts previously incubated with antibody against CK1alpha were stripped off antibodies by incubating with stripping buffer for 30 minutes followed by three washed with TBST (5 mM each), blocking with 5% (w/v) skim milk for 1 hr, and incubation with primary antibody against GAPDH overnight at 4° C. Subsequent washes, incubation with secondary antibody and signal acquisition were performed as described above.
# (§3) Table 5 assigns each compound a code indicating the ability for the degradation of IKZF1, IKZF3, CK1alpha and ZFP91: A, B, C, D, E or F. According to the code, A represents a no degradation observed at 30 μM, B represents trace degradation at 30 μM (below 20%), C represents weak degradation at 30 μM (below 50%), D represents degradation at 30 μM (>90%), E represents degradation at 3 μM (>90%) and F represents degradation at 0.3 μM (>90%).
# ZFP91 = target: T3, ZFP91 (Homo sapiens, UniProt Q96JP5); assay: Selectivity determination by Western Blot assay in MM1S cells: ZFP91; type: cell-based; parameters: key: A represents a no degradation observed at 30 μM; B represents trace degradation at 30 μM (below 20%); C represents weak degradation at 30 μM (below 50%); D represents degradation at 30 μM (>90%); E represents degradation at 3 μM (>90%); F represents degradation at 0.3 μM (>90%); details: MM1S cells, 0.3, 3 and 30 μM, 6 hours
# T3 construct: MM1S cells were purchased from ATCC (cat. Number CRL-2974); endogenous in cells; host or cells: MM1S (ATCC CRL-2974)
# Method: as §1, §2, §3
# T3 sequence (Q96SW2 whole entry partner): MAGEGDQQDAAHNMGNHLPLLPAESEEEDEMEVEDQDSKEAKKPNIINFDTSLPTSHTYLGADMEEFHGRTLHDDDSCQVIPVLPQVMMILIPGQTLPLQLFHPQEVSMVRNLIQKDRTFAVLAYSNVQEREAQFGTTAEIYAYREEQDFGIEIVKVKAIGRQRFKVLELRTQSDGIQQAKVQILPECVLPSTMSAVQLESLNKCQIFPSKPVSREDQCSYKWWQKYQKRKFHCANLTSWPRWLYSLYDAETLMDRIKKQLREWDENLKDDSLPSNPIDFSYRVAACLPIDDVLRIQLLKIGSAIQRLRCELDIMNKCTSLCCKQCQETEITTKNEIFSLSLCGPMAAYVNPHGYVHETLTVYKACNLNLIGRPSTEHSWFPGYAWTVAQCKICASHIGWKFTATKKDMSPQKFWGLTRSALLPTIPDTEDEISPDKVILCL
# T3 sequence (Q16531 2-1140 partner limits assumed): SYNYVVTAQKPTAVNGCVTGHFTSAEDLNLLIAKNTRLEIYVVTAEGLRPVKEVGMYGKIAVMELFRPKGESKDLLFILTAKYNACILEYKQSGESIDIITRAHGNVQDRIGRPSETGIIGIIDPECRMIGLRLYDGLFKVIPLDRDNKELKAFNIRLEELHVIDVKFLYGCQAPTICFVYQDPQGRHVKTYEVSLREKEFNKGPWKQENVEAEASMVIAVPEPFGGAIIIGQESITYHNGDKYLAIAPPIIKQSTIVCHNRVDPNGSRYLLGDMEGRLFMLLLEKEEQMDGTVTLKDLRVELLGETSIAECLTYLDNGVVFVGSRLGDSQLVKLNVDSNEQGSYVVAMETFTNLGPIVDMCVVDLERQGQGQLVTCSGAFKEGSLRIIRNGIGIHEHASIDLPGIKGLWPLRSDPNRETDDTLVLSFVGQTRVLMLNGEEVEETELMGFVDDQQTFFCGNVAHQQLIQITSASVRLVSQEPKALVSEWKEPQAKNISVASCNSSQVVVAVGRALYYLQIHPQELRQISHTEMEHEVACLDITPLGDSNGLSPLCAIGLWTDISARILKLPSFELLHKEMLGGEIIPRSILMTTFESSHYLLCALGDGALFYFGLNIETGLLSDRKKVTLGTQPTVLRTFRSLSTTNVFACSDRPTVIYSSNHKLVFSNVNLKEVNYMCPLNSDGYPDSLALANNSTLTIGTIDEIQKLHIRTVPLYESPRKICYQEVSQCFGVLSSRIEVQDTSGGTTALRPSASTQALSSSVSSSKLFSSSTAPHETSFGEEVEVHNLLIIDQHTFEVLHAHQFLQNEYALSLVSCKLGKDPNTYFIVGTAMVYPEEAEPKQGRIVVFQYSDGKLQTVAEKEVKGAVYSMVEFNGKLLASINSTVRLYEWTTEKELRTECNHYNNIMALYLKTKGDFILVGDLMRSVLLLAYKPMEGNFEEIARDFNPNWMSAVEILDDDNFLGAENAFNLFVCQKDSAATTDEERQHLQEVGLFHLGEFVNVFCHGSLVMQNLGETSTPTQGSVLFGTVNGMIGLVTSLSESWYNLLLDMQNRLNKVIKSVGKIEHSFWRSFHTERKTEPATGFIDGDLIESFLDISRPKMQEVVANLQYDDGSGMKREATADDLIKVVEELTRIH
# T3 sequence (Q96JP5 2-570 limits assumed): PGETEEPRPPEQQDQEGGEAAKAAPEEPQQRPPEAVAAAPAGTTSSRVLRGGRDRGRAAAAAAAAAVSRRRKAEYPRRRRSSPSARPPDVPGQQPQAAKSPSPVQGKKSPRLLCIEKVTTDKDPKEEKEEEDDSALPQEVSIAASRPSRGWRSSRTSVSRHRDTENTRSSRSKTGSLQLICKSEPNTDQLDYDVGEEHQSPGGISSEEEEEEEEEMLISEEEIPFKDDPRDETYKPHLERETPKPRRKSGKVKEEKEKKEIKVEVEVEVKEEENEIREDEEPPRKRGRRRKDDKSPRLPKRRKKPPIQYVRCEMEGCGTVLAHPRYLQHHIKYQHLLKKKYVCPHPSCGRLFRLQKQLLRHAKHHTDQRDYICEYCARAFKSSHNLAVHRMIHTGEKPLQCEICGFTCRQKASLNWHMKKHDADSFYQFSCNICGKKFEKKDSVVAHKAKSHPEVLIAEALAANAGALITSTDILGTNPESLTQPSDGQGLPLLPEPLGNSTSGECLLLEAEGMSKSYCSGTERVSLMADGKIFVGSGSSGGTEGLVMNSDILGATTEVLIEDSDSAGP
# T2 sequence (Q96SW2 whole entry partner): as the sequence (Q96SW2 whole entry partner) above
# T2 sequence (Q16531 2-1140 partner limits assumed): as the sequence (Q16531 2-1140 partner limits assumed) above
# T2 sequence (Q9UKT9 whole entry): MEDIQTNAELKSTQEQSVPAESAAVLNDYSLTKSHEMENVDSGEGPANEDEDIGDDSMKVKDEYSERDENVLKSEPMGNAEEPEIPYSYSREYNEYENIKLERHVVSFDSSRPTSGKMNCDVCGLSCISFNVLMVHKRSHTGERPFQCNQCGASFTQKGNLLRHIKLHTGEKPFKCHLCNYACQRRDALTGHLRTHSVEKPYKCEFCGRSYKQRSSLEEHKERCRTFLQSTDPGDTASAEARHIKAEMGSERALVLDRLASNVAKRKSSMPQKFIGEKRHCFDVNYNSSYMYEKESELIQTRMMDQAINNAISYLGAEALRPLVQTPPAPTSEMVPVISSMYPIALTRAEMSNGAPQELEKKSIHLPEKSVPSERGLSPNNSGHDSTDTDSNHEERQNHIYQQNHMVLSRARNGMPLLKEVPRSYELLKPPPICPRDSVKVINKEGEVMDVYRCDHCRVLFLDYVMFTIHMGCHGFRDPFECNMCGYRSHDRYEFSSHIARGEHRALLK
# T1 sequence (Q96SW2 whole entry): as the sequence (Q96SW2 whole entry partner) above
IC50 [1],IKZF3 degradation code (IKZF3),ZFP91 degradation code (ZFP91),SMILES
284 nM,A,A,Cc1c(Cl)cc(NC(=O)NCc2ccc3c(c2)C(=O)N(C2CCC(=O)NC2=O)C3)cc1CN(C)C (stereo not drawn) [Compound 75]
372 nM,A,A,Cc1c(Cl)cc(NC(=O)NCc2ccc3c(c2)C(=O)N(C2CCC(=O)NC2=O)C3)cc1CN1CCOCC1 (stereo not drawn) [Compound 82]
214 nM,A,A,Cc1cc(C)c(NC(=O)NCc2ccc3c(c2)C(=O)N(C2CCC(=O)NC2=O)C3)cc1Cl (stereo not drawn) [Compound 85]
278 nM,A,A,Cc1ccc(NC(=O)NCc2ccc3c(c2)C(=O)N(C2CCC(=O)NC2=O)C3)c(Cl)c1Cl (stereo not drawn) [Compound 87]

SMILES,IC50 [1],IKZF3 degradation code (IKZF3),ZFP91 degradation code (ZFP91)
Cc1ccc(NC(=O)NCc2ccc3c(c2)C(=O)N(C2CCC(=O)NC2=O)C3)cc1Cl (stereo not drawn) [Compound 8],468 nM,B (B represents trace degradation at 30 μM (below 20%)),B (B represents trace degradation at 30 μM (below 20%))
O=C1CCC(N2Cc3ccc(CNC(=O)Nc4cccc(CN5CCOCC5)c4)cc3C2=O)C(=O)N1 (stereo not drawn) [Compound 105],295 nM,A,B (B represents trace degradation at 30 μM (below 20%))
Cc1c(Cl)cc(NC(=O)NCc2ccc3c(c2)C(=O)N(C2CCC(=O)NC2=O)C3)cc1CC1COCOC1 (stereo not drawn) [Compound 132],381 nM,A,C (C represents weak degradation at 30 μM (below 50%))
